Blank lines part the entries; values can stand above or below the compound they belong to.
Key:
IKZF1 = IKZF1 (Homo sapiens (Human), UniProt Q13422+Q96SW2); experiment: In vitro IKZF1 HiBit Assay (HEK293T Flp-in-HiBiT-IKZF1 stable cell line); format: cell-based; conditions: HEK293T Flp-in-HiBiT-IKZF1 stable cell line, 6 hrs incubation; for DC50: read-out: IKZF1 HiBit DC50; for Dmax: HEK-293T, read-out: IKZF1 HiBit Dmax (%)
Method in brief: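 Degradation was measured as loss of luminescence from the HiBiT-IKZF1 tag after 6 h compound treatment, with 0.1% final DMSO, in stable HEK293T Flp-in cells. Values were normalized to DMSO, giving the 50% degradation concentration and the maximal degradation range.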

CRBN/DDB1 = CRBN/DDB1 (Homo sapiens (Human), UniProt Q96SW2); experiment: IC50 measurements for binding to CRBN/DDB1 (HTRF); conditions: His tagged CRBN+DDB, Cy5-labeled Thalidomide probe, one hour
Method in brief: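 Serially diluted compounds compete with a Cy5-labeled thalidomide tracer (60 nM) for His-tagged CRBN-DDB1 (2 nM), detected via anti-6His Tb cryptate (0.4 nM); buffer HEPES pH 7.5 with TCEP, Brij-35, NaCl, BSA. One-hour room-temperature incubation, HTRF signal read, IC50 by four-parameter curve.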

IKZF2 = IKZF2 (Homo sapiens (Human), UniProt Q96SW2+Q9UKS7); experiment: In vitro IKZF2 HiBit Assay (HEK293T Flp-in-HiBiT cells); format: cell-based; conditions: HEK293T Flp-in-HiBiT cells, 6 hrs incubation; for DC50: read-out: IKZF2 HiBit DC50; for Dmax: HEK-293T, read-out: IKZF2 HiBit Dmax (%)
Method in brief: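 Remaining tagged Helios was read as lytic HiBiT/LgBiT luminescence normalized to DMSO, yielding binned DC50 and Dmax values. Treatment ran 6 h, with compounds at 11 three-fold doses diluted from 1 mM and 0.1% final DMSO. The cells were HEK293T Flp-in with CRISPR knock-in of HiBiT at the IKZF2 N-terminus.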

CRBN/DDB1, sequence (Q96SW2 whole entry, species assumed): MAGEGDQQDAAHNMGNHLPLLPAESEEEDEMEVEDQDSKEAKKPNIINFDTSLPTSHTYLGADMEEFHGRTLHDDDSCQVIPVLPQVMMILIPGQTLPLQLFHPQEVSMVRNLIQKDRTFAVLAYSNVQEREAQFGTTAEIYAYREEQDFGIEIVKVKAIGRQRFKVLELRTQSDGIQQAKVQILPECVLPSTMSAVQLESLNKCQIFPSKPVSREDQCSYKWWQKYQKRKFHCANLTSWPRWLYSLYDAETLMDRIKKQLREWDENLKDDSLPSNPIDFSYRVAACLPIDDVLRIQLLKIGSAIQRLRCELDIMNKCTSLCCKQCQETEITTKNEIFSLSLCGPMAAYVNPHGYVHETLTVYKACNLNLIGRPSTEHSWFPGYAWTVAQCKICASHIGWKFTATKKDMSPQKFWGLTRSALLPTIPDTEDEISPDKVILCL
CRBN/DDB1, sequence (Q16531 whole entry partner, species assumed): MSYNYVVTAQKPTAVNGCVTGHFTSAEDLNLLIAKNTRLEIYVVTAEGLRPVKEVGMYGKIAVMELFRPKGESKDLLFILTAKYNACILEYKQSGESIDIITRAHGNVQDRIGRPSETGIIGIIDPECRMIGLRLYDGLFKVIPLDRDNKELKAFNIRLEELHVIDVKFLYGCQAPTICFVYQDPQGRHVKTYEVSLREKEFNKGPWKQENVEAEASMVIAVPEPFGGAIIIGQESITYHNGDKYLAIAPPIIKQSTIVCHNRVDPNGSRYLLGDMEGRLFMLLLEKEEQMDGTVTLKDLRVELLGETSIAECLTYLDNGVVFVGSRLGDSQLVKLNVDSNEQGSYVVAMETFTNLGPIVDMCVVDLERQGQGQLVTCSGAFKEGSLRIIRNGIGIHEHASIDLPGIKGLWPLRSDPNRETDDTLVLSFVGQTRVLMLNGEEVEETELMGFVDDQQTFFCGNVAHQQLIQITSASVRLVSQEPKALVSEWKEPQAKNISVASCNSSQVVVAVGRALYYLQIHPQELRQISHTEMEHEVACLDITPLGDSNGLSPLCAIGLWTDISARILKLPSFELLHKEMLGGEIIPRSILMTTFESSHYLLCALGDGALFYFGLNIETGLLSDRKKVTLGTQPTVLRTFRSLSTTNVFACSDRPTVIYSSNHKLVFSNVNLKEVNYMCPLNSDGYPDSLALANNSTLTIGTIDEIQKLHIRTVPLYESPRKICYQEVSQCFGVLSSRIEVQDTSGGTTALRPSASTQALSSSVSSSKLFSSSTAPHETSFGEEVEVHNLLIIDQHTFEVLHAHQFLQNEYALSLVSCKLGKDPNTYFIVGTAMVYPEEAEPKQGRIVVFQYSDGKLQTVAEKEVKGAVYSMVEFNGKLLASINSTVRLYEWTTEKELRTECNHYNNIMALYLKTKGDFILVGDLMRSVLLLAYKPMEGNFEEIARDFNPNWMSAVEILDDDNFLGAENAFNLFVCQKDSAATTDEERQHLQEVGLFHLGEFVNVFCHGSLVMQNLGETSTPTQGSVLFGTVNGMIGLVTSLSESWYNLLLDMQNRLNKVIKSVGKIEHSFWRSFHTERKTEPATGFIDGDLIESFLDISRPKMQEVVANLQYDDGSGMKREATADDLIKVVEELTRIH
IKZF1, sequence (Q13422 whole entry): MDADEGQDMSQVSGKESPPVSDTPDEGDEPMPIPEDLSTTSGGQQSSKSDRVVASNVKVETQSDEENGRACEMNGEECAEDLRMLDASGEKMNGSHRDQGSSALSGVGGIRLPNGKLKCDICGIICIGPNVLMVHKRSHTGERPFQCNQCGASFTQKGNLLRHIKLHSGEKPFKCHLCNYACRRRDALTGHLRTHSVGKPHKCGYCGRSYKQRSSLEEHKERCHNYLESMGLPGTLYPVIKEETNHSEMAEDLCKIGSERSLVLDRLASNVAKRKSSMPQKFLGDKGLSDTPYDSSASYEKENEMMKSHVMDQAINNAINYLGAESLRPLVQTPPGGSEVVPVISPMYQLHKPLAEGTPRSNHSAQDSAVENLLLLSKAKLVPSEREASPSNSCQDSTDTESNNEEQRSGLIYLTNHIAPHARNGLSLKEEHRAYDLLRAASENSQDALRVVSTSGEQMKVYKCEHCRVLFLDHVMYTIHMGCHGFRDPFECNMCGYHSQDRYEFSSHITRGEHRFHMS
IKZF1, sequence (Q96SW2 whole entry): as the sequence (Q96SW2 whole entry, species assumed) above
IKZF1, sequence (Q16531 2-1140 partner): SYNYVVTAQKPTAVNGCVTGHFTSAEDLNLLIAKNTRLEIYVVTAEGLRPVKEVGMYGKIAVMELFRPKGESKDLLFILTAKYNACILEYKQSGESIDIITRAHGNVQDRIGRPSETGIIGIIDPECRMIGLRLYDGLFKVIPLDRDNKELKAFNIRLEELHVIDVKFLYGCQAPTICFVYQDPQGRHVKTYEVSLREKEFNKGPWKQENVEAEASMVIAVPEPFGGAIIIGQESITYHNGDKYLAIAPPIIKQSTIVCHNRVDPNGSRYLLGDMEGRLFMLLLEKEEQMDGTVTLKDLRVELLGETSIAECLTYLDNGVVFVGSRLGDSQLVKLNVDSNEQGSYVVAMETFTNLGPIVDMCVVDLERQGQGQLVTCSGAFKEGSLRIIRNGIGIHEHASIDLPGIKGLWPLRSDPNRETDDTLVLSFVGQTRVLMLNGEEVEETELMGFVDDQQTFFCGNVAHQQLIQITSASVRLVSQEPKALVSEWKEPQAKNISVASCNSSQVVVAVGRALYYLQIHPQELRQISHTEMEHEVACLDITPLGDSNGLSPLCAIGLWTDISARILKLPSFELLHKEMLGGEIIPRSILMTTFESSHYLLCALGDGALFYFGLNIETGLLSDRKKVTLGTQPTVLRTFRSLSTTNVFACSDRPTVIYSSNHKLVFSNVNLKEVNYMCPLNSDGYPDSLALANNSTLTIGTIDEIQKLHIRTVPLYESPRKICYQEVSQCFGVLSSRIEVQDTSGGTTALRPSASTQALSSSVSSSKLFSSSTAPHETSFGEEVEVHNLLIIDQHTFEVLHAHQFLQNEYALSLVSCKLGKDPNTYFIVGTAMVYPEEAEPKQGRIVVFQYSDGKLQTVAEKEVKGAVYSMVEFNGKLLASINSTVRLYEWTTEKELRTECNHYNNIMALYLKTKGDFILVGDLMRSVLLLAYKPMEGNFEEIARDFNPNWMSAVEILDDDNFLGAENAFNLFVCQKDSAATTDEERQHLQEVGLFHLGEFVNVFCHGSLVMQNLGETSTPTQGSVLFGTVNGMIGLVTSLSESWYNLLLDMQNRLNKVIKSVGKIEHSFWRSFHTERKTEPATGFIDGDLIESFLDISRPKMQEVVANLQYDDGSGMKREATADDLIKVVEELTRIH
IKZF2, sequence (Q9UKS7 whole entry): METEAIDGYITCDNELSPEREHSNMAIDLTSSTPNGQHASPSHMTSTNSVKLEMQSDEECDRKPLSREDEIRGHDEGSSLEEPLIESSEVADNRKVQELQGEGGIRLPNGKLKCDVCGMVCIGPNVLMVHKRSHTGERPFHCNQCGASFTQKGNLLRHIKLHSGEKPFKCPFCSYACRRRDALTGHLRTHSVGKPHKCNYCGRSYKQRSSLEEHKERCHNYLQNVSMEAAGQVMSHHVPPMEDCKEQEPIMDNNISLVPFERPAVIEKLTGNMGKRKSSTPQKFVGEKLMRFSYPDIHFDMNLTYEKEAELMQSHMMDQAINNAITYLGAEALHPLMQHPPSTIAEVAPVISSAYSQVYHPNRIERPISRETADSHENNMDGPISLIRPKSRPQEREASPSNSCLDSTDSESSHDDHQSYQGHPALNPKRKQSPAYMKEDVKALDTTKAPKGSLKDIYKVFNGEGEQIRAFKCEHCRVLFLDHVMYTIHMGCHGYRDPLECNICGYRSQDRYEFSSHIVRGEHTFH
IKZF2, sequence (Q96SW2 whole entry): as the sequence (Q96SW2 whole entry, species assumed) above
IKZF2, sequence (Q16531 2-1140 partner): as the sequence (Q16531 2-1140 partner) above

SMILES: Cn1ccc2c(CN3CC4CCC(C4)C3)cc(-c3ccc4c(c3)CN(C3CCC(=O)NC3=O)C4=O)nc21 (stereo not shown) [Example 308, 3-(5-(4-((3-azabicyclo[3.2.1]octan-3-yl)methyl)-1-methyl-1H-pyrrolo[2,3-b]pyridin-6-yl)-1-oxoisoindolin-2-yl) piperidine-2,6-dione]
DC50 (IKZF1): 1 to 10 nM
Dmax (IKZF1): 20 to 40%
IC50 (CRBN/DDB1): 100 to 500 nM
DC50 (IKZF2): 1 to 10 nM
Dmax (IKZF2): > 80%

SMILES: Cn1ccc2c(CN3CCCC3)cc(-c3cc4c(cc3F)C(=O)N(C3CCC(=O)NC3=O)C4)nc21 (stereo not shown) [Example 82, 3-(6-fluoro-5-(1-methyl-4-(pyrrolidin-1-ylmethyl)-1H-pyrrolo[2,3-b]pyridin-6-yl)-1-oxoisoindolin-2-yl) piperidine-2,6-dione]
DC50 (IKZF1): > 10000 nM
Dmax (IKZF1): < 20%
IC50 (CRBN/DDB1): 5000 to 10000 nM
DC50 (IKZF2): 100 to 1000 nM
Dmax (IKZF2): 20 to 40%

SMILES: O=C1CCC(N2Cc3cc(-c4cc(CN5CCCC5)c5c(ccn5CCCO)n4)ccc3C2=O)C(=O)N1 (stereo not shown) [Example 173, 3-(5-(1-(3-hydroxypropyl)-7-(pyrrolidin-1-ylmethyl)-1H-pyrrolo[3,2-b]pyridin-5-yl)-1-oxoisoindolin-2-yl) piperidine-2,6-dione]
DC50 (IKZF1): 100 to 1000 nM
Dmax (IKZF1): 20 to 40%
IC50 (CRBN/DDB1): 1000 to 5000 nM
DC50 (IKZF2): 10 to 100 nM
Dmax (IKZF2): 60 to 80%

SMILES: CS(=O)(=O)C1CCN(Cc2cc(-c3ccc4c(c3)CN(C3CCC(=O)NC3=O)C4=O)nc3c2ccn3C2COC2)CC1 (stereo not shown) [Example 185, 3-(5-(4-((4-(methylsulfonyl)piperidin-1-yl)methyl)-1-(oxetan-3-yl)-1H-pyrrolo[2,3-b]pyridin-6-yl)-1-oxoisoindolin-2-yl) piperidine-2,6-dione]
DC50 (IKZF1): > 10000 nM
Dmax (IKZF1): < 20%
IC50 (CRBN/DDB1): 500 to 1000 nM
DC50 (IKZF2): 100 to 1000 nM
Dmax (IKZF2): 40 to 60%

SMILES: COCCn1ccc2c(CN3CCCC3)cc(-c3ccc4c(c3)CN(C3CCC(=O)NC3=O)C4=O)nc21 (stereo not shown) [Example 118, 3-(5-(1-(2-methoxyethyl)-4-(pyrrolidin-1-ylmethyl)-1H-pyrrolo[2,3-b]pyridin-6-yl)-1-oxoisoindolin-2-yl) piperidine-2,6-dione]
DC50 (IKZF1): > 10000 nM
Dmax (IKZF1): < 20%
IC50 (CRBN/DDB1): 500 to 1000 nM
DC50 (IKZF2): 1 to 10 nM
Dmax (IKZF2): 40 to 60%

SMILES: O=C1CCC(N2Cc3cc(-c4cc(CN5CCCC5)c5c(n4)NC(=O)C5)ccc3C2=O)C(=O)N1 (stereo not shown) [Example 200, 3-(1-oxo-5-(2-oxo-4-(pyrrolidin-1-ylmethyl)-2,3-dihydro-1H-pyrrolo[2,3-b]pyridin-6-yl)isoindolin-2-yl) piperidine-2,6-dione]
DC50 (IKZF1): 100 to 1000 nM
Dmax (IKZF1): 20 to 40%
IC50 (CRBN/DDB1): 100 to 500 nM
DC50 (IKZF2): 100 to 1000 nM
Dmax (IKZF2): 60 to 80%

DC50 (IKZF1): 10 to 100 nM
Dmax (IKZF1): 20 to 40%
IC50 (CRBN/DDB1): 100 to 500 nM
DC50 (IKZF2): 1 to 10 nM
Dmax (IKZF2): > 80%
SMILES: O=C1CCC(N2Cc3cc(-c4cc(CN5CCCC5)c5cn(C6CCC6)nc5n4)ccc3C2=O)C(=O)N1 (stereo not shown) [Example 316, 3-(5-(2-cyclobutyl-4-(pyrrolidin-1-ylmethyl)-2H-pyrazolo[3,4-b]pyridin-6-yl)-1-oxoisoindolin-2-yl) piperidine-2,6-dione]

SMILES: Cn1ccc2c(CN3CCC(O)CC3)cc(-c3ccc4c(c3)CN(C3CCC(=O)NC3=O)C4=O)nc21 (stereo not shown) [Example 305, 3-(5-(4-((4-hydroxypiperidin-1-yl)methyl)-1-methyl-1H-pyrrolo[2,3-b]pyridin-6-yl)-1-oxoisoindolin-2-yl) piperidine-2,6-dione]
DC50 (IKZF1): > 10000 nM
Dmax (IKZF1): < 20%
IC50 (CRBN/DDB1): 1000 to 5000 nM
DC50 (IKZF2): 1 to 10 nM
Dmax (IKZF2): > 80%

SMILES: O=C1CCC(N2Cc3cc(-c4nc(CN5CCCC5)c5ccn(C6CCC6)c5n4)ccc3C2=O)C(=O)N1 (stereo not shown) [Example 217, 3-(5-(7-cyclobutyl-4-(pyrrolidin-1-ylmethyl)-7H-pyrrolo[2,3-d]pyrimidin-2-yl)-1-oxoisoindolin-2-yl) piperidine-2,6-dione]
DC50 (IKZF1): > 10000 nM
Dmax (IKZF1): < 20%
IC50 (CRBN/DDB1): 500 to 1000 nM
DC50 (IKZF2): 1 to 10 nM
Dmax (IKZF2): 60 to 80%

SMILES: Nc1nn(C2COC2)c2c(CN3CCCC3)cc(-c3ccc4c(c3)CN(C3CCC(=O)NC3=O)C4=O)nc12 (stereo not shown) [Example 234, 3-(5-(3-amino-1-(oxetan-3-yl)-7-(pyrrolidin-1-ylmethyl)-1H-pyrazolo[4,3-b]pyridin-5-yl)-1-oxoisoindolin-2-yl) piperidine-2,6-dione]
DC50 (IKZF1): 1000 to 10000 nM
Dmax (IKZF1): 20 to 40%
IC50 (CRBN/DDB1): 1000 to 5000 nM
DC50 (IKZF2): 10 to 100 nM
Dmax (IKZF2): 60 to 80%

SMILES: O=C1CCC(N2Cc3cc(-c4cc(CN5CCC(CO)CC5)c5ccn(C6CC6)c5n4)ccc3C2=O)C(=O)N1 (stereo not shown) [Example 144, 3-(5-(1-cyclopropyl-4-((4-(hydroxymethyl)piperidin-1-yl)methyl)-1H-pyrrolo[2,3-b]pyridin-6-yl)-1-oxoisoindolin-2-yl) piperidine-2,6-dione]
DC50 (IKZF1): 10 to 100 nM
Dmax (IKZF1): 20 to 40%
IC50 (CRBN/DDB1): 100 to 500 nM
DC50 (IKZF2): 1 to 10 nM
Dmax (IKZF2): > 80%

SMILES: Cn1ccc2c(CN3CC4COCC(C4)C3)cc(-c3ccc4c(c3)CN(C3CCC(=O)NC3=O)C4=O)nc21 (stereo not shown) [Example 70, 3-(5-(4-((3-oxa-7-azabicyclo[3.3.1]nonan-7-yl)methyl)-1-methyl-1H-pyrrolo[2,3-b]pyridin-6-yl)-1-oxoisoindolin-2-yl) piperidine-2,6-dione]
DC50 (IKZF1): > 10000 nM
Dmax (IKZF1): < 20%
IC50 (CRBN/DDB1): 1000 to 5000 nM
DC50 (IKZF2): 1 to 10 nM
Dmax (IKZF2): > 80%

SMILES: O=C1CCC(N2Cc3cc(-c4cc(CN5CCC6(CC5)COC6)c5ccn(C6COC6)c5n4)ccc3C2=O)C(=O)N1 (stereo not shown) [Example 188, 3-(5-(4-((2-oxa-7-azaspiro[3.5]nonan-7-yl)methyl)-1-(oxetan-3-yl)-1H-pyrrolo[2,3-b]pyridin-6-yl)-1-oxoisoindolin-2-yl) piperidine-2,6-dione]
DC50 (IKZF1): > 10000 nM
Dmax (IKZF1): < 20%
IC50 (CRBN/DDB1): 500 to 1000 nM
DC50 (IKZF2): 1 to 10 nM
Dmax (IKZF2): 60 to 80%

SMILES: O=C1CCC(N2Cc3cc(-c4cc(CN5CCCC5)c5cc[nH]c5n4)ccc3C2=O)C(=O)N1 (stereo not shown) [Example 59, 3-(1-oxo-5-(4-(pyrrolidin-1-ylmethyl)-1H-pyrrolo[2,3-b]pyridin-6-yl)isoindolin-2-yl) piperidine-2,6-dione]
DC50 (IKZF1): > 10000 nM
Dmax (IKZF1): 20 to 40%
IC50 (CRBN/DDB1): 100 to 500 nM
DC50 (IKZF2): 1 to 10 nM
Dmax (IKZF2): > 80%

SMILES: Cn1ccc2c(Cn3ccnc3)cc(-c3ccc4c(c3)CN(C3CCC(=O)NC3=O)C4=O)nc21 (stereo not shown) [Example 88, 3-(5-(4-((1H-imidazol-1-yl)methyl)-1-methyl-1H-pyrrolo[2,3-b]pyridin-6-yl)-1-oxoisoindolin-2-yl) piperidine-2,6-dione]
DC50 (IKZF1): > 10000 nM
Dmax (IKZF1): < 20%
IC50 (CRBN/DDB1): 1000 to 5000 nM
DC50 (IKZF2): 10 to 100 nM
Dmax (IKZF2): > 80%

SMILES: COC1CCN(Cc2cc(-c3ccc4c(c3)CN(C3CCC(=O)NC3=O)C4=O)nc3c2ccn3C)C1 (stereo not shown) [Example 93, 3-(5-(4-((3-methoxypyrrolidin-1-yl)methyl)-1-methyl-1H-pyrrolo[2,3-b]pyridin-6-yl)-1-oxoisoindolin-2-yl) piperidine-2,6-dione]
DC50 (IKZF1): 10 to 100 nM
Dmax (IKZF1): 20 to 40%
IC50 (CRBN/DDB1): 100 to 500 nM
DC50 (IKZF2): < 1 nM
Dmax (IKZF2): > 80%

SMILES: COCC1CCN(Cc2cc(-c3ccc4c(c3)CN(C3CCC(=O)NC3=O)C4=O)nc3c2ccn3C)C1 (stereo not shown) [Example 109, 3-(5-(4-((3-(methoxymethyl)pyrrolidin-1-yl)methyl)-1-methyl-1H-pyrrolo[2,3-b]pyridin-6-yl)-1-oxoisoindolin-2-yl) piperidine-2,6-dione]
DC50 (IKZF1): 1 to 10 nM
Dmax (IKZF1): 20 to 40%
IC50 (CRBN/DDB1): 100 to 500 nM
DC50 (IKZF2): < 1 nM
Dmax (IKZF2): > 80%

Reference: patent publication US20250214991A1 (Oncopia Therapeutics, Inc. d/b/a/ SK Life Science Labs, priority 2022, published 2025)
